Assay type in all cases: cell-based
Experiment [1] relates to cleavage of PARP and caspase-3 in LP1, OPM2 and JJN3 cells. Nature of the experiment: Apoptotic signaling, immunoblotting of PARP and caspase-3. The settings on record: 0-20 μM or 10 μM for 3-12 hrs, time- and concentration-dependent. The text has this:
Because PI3K/AKT signaling is critical in modulating MM cell proliferation and survival, while interference with this pathway will lead to cell death and regression of MM tumors, we next asked whether C96 could induce MM cell apoptosis and inhibited MM cell proliferation. […] Next, we measured the induction of apoptosis by C96 in MM cell lines. Apoptotic cells are featured with inside-out expression of phosphatidylserine which is specifically identified by Annexin V, a cellular protein in the annexin group. Therefore, to measure the apoptotic level, C96-treated cells were stained with Annexin V-FITC and propidium iodide followed by flow cytometry analysis. […] For example, less apoptotic cells were induced by C96 in KMS11 cells in the Annexin V staining assay (Figure 5), the cleavage level of PARP in this cell line was also lower than that seen in other cell lines, such as OPM2 (Figure 6A). We next examined the apoptotic signaling pathway in the treatment with C96 with increasing exposure periods or concentrations. […]
Cells were treated with or without C96 for 24 hrs before being applied to lysate preparation in a lysis buffer (50 mM Tris-HCI, pH 7.4, 1% NP-40, 0.5% Na-deoxycholate, and 0.1% SDS, 150 mM NaCl, 2 mM EDTA, 2 mM Na3VO4, and 5 mM NaF). […] All immunoblotting signals were further analyzed with Quality One Quality One software (Bio-Rad, Berkeley, CA, USA).

Experiment [2] relates to AKT phosphorylation in OPM2 cells. Nature of the experiment: IGF-1-stimulated AKT phosphorylation, immunoblotting. The settings on record: OPM2 cells (no PTEN), 2 hrs, IGF-1 15 min. The method, then:
MM cell lines LP1 and OPM2 were starved overnight before being treated with C96 (0–100 μM) or S14161 (100 μM, a positive control) for a short period (2 hrs), followed by IGF-1 stimulation for 15 min. […] (Figure 2A). In LP1 cells, C96 at 25 μM and 50 μM led to a 50% and 90% decrease in AKT phosphorylation, respectively, in the 2-hr treatment. […] In the time-course study, AKT activation was suppressed by C96 at 50 μM within 0.5 hrs (30 min) (Figure 2B).
Figure 2 C96 inhibits AKT and mTOR signaling (A) LP1 and OPM2 were starved overnight, then treated with C96 at the indicated concentrations, or 100 μM of S14161 for 2 hrs, followed by IGF-1 (100 ng/mL) for 15 min. Cells were collected for the analysis of the expression of p-AKT and total AKT (T-AKT) by immunoblotting. (B) LP1 and OPM2 cells were starved overnight, then treated with C96 (50 μM) for different time periods, or S14161 (100 (μM) for 2 hrs, followed by IGF-1 (100 ng/mL) for 15 min. Cells were for the analysis of the expression of p-AKT and T-AKT by immunoblotting. (C) LP1, OPM2, and JJN3 cells were treated with C96 at the indicated concentrations for 24 hrs. Cell lysates were prepared and subjected to immunoblotting assay against p-AKT, AKT, p-mTOR, mTOR, p-4E-BP1, and 4E-BP1. GAPDH was used as a loading control.
Cells were treated with or without C96 for 24 hrs before being applied to lysate preparation in a lysis buffer (50 mM Tris-HCI, pH 7.4, 1% NP-40, 0.5% Na-deoxycholate, and 0.1% SDS, 150 mM NaCl, 2 mM EDTA, 2 mM Na3VO4, and 5 mM NaF). Equal amounts (30 μg) of total proteins were subjected to sodium dodecyl sulfate–polyacrylamide gel electrophoresis (SDS-PAGE) separation, followed by immunoblotting analyses with specific antibodies. Antibodies against PARP, caspase-3, AKT, p-AKT(S473), 4E-BP1, p-4E-BP1(S65), IGF-1R, p-IGF-1R, ERK(p42/p44), and p-ERK(p42/p44) were purchased from Cell Signaling Technologies. Antibodies against mTOR, p-mTOR(S2448), p70S6K, p-p70S6K(S424), and GAPDH were obtained from Abgent (Suzhou, China). Horseradish peroxidase-conjugate secondary antibodies against mouse or rabbit and GAPDH were purchased from Abgent. All immunoblotting signals were further analyzed with Quality One Quality One software (Bio-Rad, Berkeley, CA, USA).

The subject of experiment [3] is ERK phosphorylation in LP1 and JJN3 cells. Nature of the experiment: ERK phosphorylation, immunoblotting. The settings on record: increasing concentrations, 24 hrs. The method, then: (§1) To elucidate this specificity, we first evaluated its effects on IGF-1R because IGF-1R as a receptor tyrosine kinase activates PI3K in the presence of IGF-1. To exclude the potential effects of C96 on IGF-1 signaling, LP1 and JJN3 cells were starved overnight followed by C96 or S14161 treatment for 2 hrs, and IGF-1 stimulation for 15 min. As expected, IGF-1 triggered AKT phosphorylation but it was suppressed by both C96 and the proven PI3K inhibitor S14161 without affecting total AKT expression (Figure 3A). […] Next, we evaluated other kinases including non-receptor kinase c-Src and a PI3K parallel kinase ERK which transduces external cellular signals. Both LP1 and JJN3 cells were treated with C96 at increasing concentrations that inhibited AKT and mTOR activation (Figure 2C).
(§2) Figure 3 C96 inhibits AKT but not IGF-1R, ERK or c-Src kinase activation (A) LP1 and JJN3 cells were starved overnight, then treated with 100 (μM of C96 or S14161 for 2 hrs, followed by IGF-1 (100 ng/mL) for 15 min. After incubation, cells were harvested and the expression of p-AKT, p-IGF-1R, total AKT (T-AKT), and IGF-1R proteins were detected by immunoblotting. (B) LP1 and JJN3 were treated with C96 at indicated concentrations for 24 hrs followed by immunoblotting assay for the expression of p-Src, c-Src, p-ERK, and ERK. GAPDH was used as a loading control. […]
On the technique in general: Immunoblotting shows a protein as a band on a membrane.

In experiment [4] the test system is IGF-1R phosphorylation in LP1 and JJN3 cells. Nature of the experiment: IGF-1-induced IGF-1R phosphorylation, immunoblotting. To be noted: 100 μM, 2 hrs, IGF-1 15 min. The method, then: as §1, §2

On to `O=C1NC(=O)C(=CC=Cc2cccs2)C(=O)N1` [C96, 5-(3-(2-thienyl)-2-propen-1-ylidene)-2,4,6(1H,3H,5H)-pyrimidinetrione], for which the “cleavage of PARP and caspase-3” value in experiment [1] was “induced cleavage of PARP and caspase-3”. Moreover, the AKT phosphorylation result in experiment [2] is “markedly decreased”. The “phosphorylation level of ERK” value in experiment [3] is “did not decrease”. Further, the “IGF-1R phosphorylation induced by IGF-1” value in experiment [4] is listed as “not affected”.

The values are drawn from publication PMC4116524, “A virtual screen identified C96 as a novel inhibitor of phosphatidylinositol 3-kinase that displays potent preclinical activity against multiple myeloma in vitro and in vivo” (Oncotarget, 2014).
